Source: patent US11427567B2, “Imidazolyl pyrimidinylamine compounds as CDK2 inhibitors” (Incyte Corporation, priority 2019, dated 2022)

Target: CDK2/Cyclin E1 (Homo sapiens (Human), UniProt P24941)
Assay: CDK2/Cyclin E1 HTRF enzyme activity assay (Example A)
Type: biochemical
Conditions: 1 mM ATP
Description: Assays were conducted in white 384-well polystyrene plates in a final reaction volume of 8 μL. […] HTRF signals were read after 1 hour at room temperature on a PHERAstar FS plate reader (BMG Labtech). Data was analyzed with IDBS XLFit and GraphPad Prism 5.0 software using a three or four parameter dose response curve to determine IC50 for each compound.

| SMILES | IC50 [nM] |
| --- | --- |
| [2H]C([2H])([2H])NCc1cccc(-n2cnc(-c3nc(NC4CCN(S(C)(=O)=O)CC4)ncc3C(F)(F)F)c2)c1Cl [Example 462, 4-(1-(2-Chloro-3-(((methyl-d3)amino)methyl)phenyl)-1H-imidazol-4-yl)-N-(1-(methylsulfonyl)piperidin-4-yl)-5-(trifluoromethyl)pyrimidin-2-amine] | ≤ 50 |
| C[C@@H]1CN(S(C)(=O)=O)CC[C@@H]1Nc1ncc(C(F)(F)F)c(-c2cn(-c3ccc(C4CCCCN4)cc3Cl)cn2)n1 (single isomer, unassigned) [Example 278] | ≤ 50 |
| CS(=O)(=O)N1CCC(Nc2ncc(C(F)(F)F)c(-c3cn(-c4ccc(CNCC(F)(F)F)cc4Cl)cn3)n2)CC1 [Example 188, 4-(1-(2-Chloro-4-(((2,2,2-trifluoroethyl)-amino)methyl)phenyl)-1H-imidazol-4-yl)-N-(1-(methylsulfonyl)-piperidin-4-yl)-5-(trifluoromethyl)-pyrimidin-2-amine] | ≤ 50 |
| Cc1nc(-c2nc(N[C@H]3CCN(S(C)(=O)=O)C[C@H]3F)ncc2C(F)(F)F)cn1-c1ccc(C#N)cc1F [Example 299, 3-Fluoro-4-(4-(2-(((3R,4S)-3-fluoro-1-(methylsulfonyl)piperidin-4-yl)amino)-5-(trifluoromethyl)pyrimidin-4-yl)-2-methyl-1H-imidazol-1-yl)benzonitrile] | ≤ 50 |
| CCNCc1cc(F)c(-n2cnc(-c3nc(NC4CCN(S(C)(=O)=O)CC4)ncc3C(F)(F)F)c2)c(F)c1 [Example 349, 4-(1-(4-((Ethylamino)methyl)-2,6-difluorophenyl)-1H-imidazol-4-yl)-N-(1-(methylsulfonyl)piperidin-4-yl)-5-(trifluoromethyl)pyrimidin-2-amine] | ≤ 50 |
| C[C@@H]1CN(S(C)(=O)=O)CC[C@@H]1Nc1ncc(C(F)(F)F)c(-c2cn(CC(C)(C)O)cn2)n1 [Example 327, 2-Methyl-1-(4-(2-(((3R,4S)-3-methyl-1-(methylsulfonyl)piperidin-4-yl)amino)-5-(trifluoromethyl)pyrimidin-4-yl)-1H-imidazol-1-yl)propan-2-ol] | ≤ 50 |
| Cc1ccc(-n2cnc(-c3nc(N[C@H]4CCN(S(C)(=O)=O)C[C@H]4F)ncc3C(F)(F)F)c2)c(C#N)n1 [Example 51, 3-(4-(2-(((3R,4S)-3-Fluoro-1-(methylsulfonyl)piperidin-4-yl)amino)-5-(trifluoromethyl)pyrimidin-4-yl)-1H-imidazol-1-yl)-6-methylpicolinonitrile] | ≤ 50 |
| Cc1nc(-c2nc(N[C@H]3CCN(S(C)(=O)=O)C[C@H]3F)ncc2C(F)(F)F)cn1-c1ccc(N2CCC(N(C)C)CC2)cc1F [Example 118, 4-(1-(4-(4-(Dimethylamino)piperidin-1-yl)-2-fluorophenyl)-2-methyl-1H-imidazol-4-yl)-N-((3R,4S)-3-fluoro-1-(methylsulfonyl)piperidin-4-yl)-5-(trifluoromethyl)pyrimidin-2-amine] | ≤ 50 |
| Cc1nc(CN2CC(C)(C)C2)ccc1-n1cnc(-c2nc(NC3CCN(S(C)(=O)=O)CC3)ncc2C(F)(F)F)c1 [Example 265, 4-(1-(6-((3,3-Dimethylazetidin-1-yl)methyl)-2-methylpyridin-3-yl)-1H-imidazol-4-yl)-N-(1-(methylsulfonyl)piperidin-4-yl)-5-(trifluoromethyl)pyrimidin-2-amine] | ≤ 50 |
| Cc1nc(-c2nc(NC3CCN(S(C)(=O)=O)CC3)ncc2C(F)(F)F)cn1-c1ccc(N2CCNCC2)cc1F [Example 111, 4-(1-(2-Fluoro-4-(piperazin-1-yl)-phenyl)-2-methyl-1H-imidazol-4-yl)-N-(1-(methyl-sulfonyl)piperidin-4-yl)-5-(trifluoro-methyl)pyrimidin-2-amine] | ≤ 50 |
| Cc1c(-n2cnc(-c3nc(NC4CCN(S(=O)(=O)c5cn(C)cn5)CC4)ncc3C(F)(F)F)c2)ccnc1C#N [Example 7, 3-Methyl-4-(4-(2-((1-((1-methyl-1H-imidazol-4-yl)sulfonyl)piperidin-4-yl)amino)-5-(trifluoromethyl)pyrimidin-4-yl)-1H-imidazol-1-yl)picolinonitrile] | ≤ 50 |
| CCN1CCN(c2nccc(-n3cnc(-c4nc(NC5CCN(S(C)(=O)=O)CC5)ncc4C(F)(F)F)c3)c2C#N)CC1 [Example 315, 2-(4-Ethylpiperazin-1-yl)-4-(4-(2-((1-(methylsulfonyl)piperidin-4-yl)amino)-5-(trifluoromethyl)pyrimidin-4-yl)-1H-imidazol-1-yl)nicotinonitrile] | ≤ 50 |
| CCNCc1cc(F)c(-n2cnc(-c3nc(N[C@H]4CCN(S(C)(=O)=O)C[C@H]4F)ncc3C(F)(F)F)c2)c(F)c1 [Example 444, 4-(1-(4-((Ethylamino)methyl)-2,6-difluorophenyl)-1H-imidazol-4-yl)-N-((3R,4S)-3-fluoro-1-(methylsulfonyl)piperidin-4-yl)-5-(trifluoromethyl)pyrimidin-2-amine] | ≤ 50 |
| Cc1nc(-c2nc(NC3CCN(S(C)(=O)=O)CC3)ncc2C(F)(F)F)cn1-c1ccc(C2CN(C[C@H](C)O)C2)cc1F [Example 419, (S)-1-(3-(3-Fluoro-4-(2-methyl-4-(2-((1-(methylsulfonyl)piperidin-4-yl)amino)-5-(trifluoromethyl)pyrimidin-4-yl)-1H-imidazol-1-yl)phenyl)azetidin-1-yl)propan-2-ol] | ≤ 50 |

Next, values leading:

| IC50 [nM] | SMILES |
| --- | --- |
| ≤ 50 | CC(C)(O)Cn1cnc(-c2nc(N[C@@H]3CCN(S(C)(=O)=O)C[C@H]3F)ncc2C(F)(F)F)c1 [Example 326, 1-(4-(2-(((3R,4R)-3-Fluoro-1-(methylsulfonyl)piperidin-4-yl)amino)-5-(trifluoromethyl)pyrimidin-4-yl)-1H-imidazol-1-yl)-2-methylpropan-2-ol] |
| ≤ 50 | CN1CCN(Cc2ccc(-n3cnc(-c4nc(NC5CCN(S(C)(=O)=O)CC5)ncc4C(F)(F)F)c3)c(Cl)c2)CC1 [Example 209, 4-(1-(2-Chloro-4-((4-methylpiperazin-1-yl)methyl)phenyl)-1H-imidazol-4-yl)-N-(1-(methylsulfonyl)-piperidin-4-yl)-5-(trifluoromethyl)-pyrimidin-2-amine] |
| ≤ 50 | CC(C)NCc1cc(F)c(-n2cnc(-c3nc(N[C@@H]4CCN(S(C)(=O)=O)C[C@H]4F)ncc3C(F)(F)F)c2)c(Cl)c1 [Example 405, 4-(1-(2-Chloro-6-fluoro-4-((isopropylamino)methyl)phenyl)-1H-imidazol-4-yl)-N-((3R,4R)-3-fluoro-1-(methylsulfonyl)piperidin-4-yl)-5-(trifluoromethyl)pyrimidin-2-amine] |
| ≤ 50 | CS(=O)(=O)N1CCC(Nc2ncc(C(F)(F)F)c(-c3cn(-c4cccnc4C(F)F)cn3)n2)CC1 [Example 37, 4-(1-(2-(Difluoromethyl)pyridin-3-yl)-1H-imidazol-4-yl)-N-(1-(methylsulfonyl)piperidin-4-yl)-5-(trifluoromethyl)pyrimidin-2-amine] |
| ≤ 50 | CN1CCN(c2ccc(-n3cnc(-c4nc(NC5CCN(S(C)(=O)=O)CC5)ncc4C(F)(F)F)c3)c(Cl)c2)C1=O [Example 147, 1-(3-Chloro-4-(4-(2-((1-(methyl-sulfonyl)piperidin-4-yl)amino)-5-(trifluoromethyl)-pyrimidin-4-yl)-1H-imidazol-1-yl)-phenyl)-3-methyl-imidazolidin-2-one] |
| ≤ 50 | Cc1cc(C#N)ncc1-n1cnc(-c2nc(NC3CCN(S(C)(=O)=O)CC3)ncc2C(F)(F)F)c1 [Example 168, 4-Methyl-5-(4-(2-((1-(methylsulfonyl)piperidin-4-yl)amino)-5-(trifluoromethyl)pyrimidin-4-yl)-1H-imidazol-1-yl)picolinonitrile] |
| ≤ 50 | CN(C)Cc1ccc(-n2cnc(-c3nc(NC4CCN(S(C)(=O)=O)CC4)ncc3C(F)(F)F)c2)c(Cl)c1 [Example 175, 4-(1-(2-Chloro-4-((dimethylamino)methyl)phenyl)-1H-imidazol-4-yl)-N-(1-(methylsulfonyl)piperidin-4-yl)-5-(trifluoromethyl)pyrimidin-2-amine] |
| ≤ 50 | CNCc1ccc(-n2cnc(-c3nc(NC4CCN(S(C)(=O)=O)CC4)ncc3C(F)(F)F)c2)c(Cl)c1F [Example 268, 4-(1-(2-Chloro-3-fluoro-4-((methylamino)methyl)phenyl)-1H-imidazol-4-yl)-N-(1-(methylsulfonyl)piperidin-4-yl)-5-(trifluoromethyl)pyrimidin-2-amine] |
| ≤ 50 | Cn1cc(-c2nc(NC3CCN(S(C)(=O)=O)CC3)ncc2C(F)(F)F)nc1CC(C)(C)O [Example 18, 2-Methyl-1-(1-methyl-4-(2-((1-(methylsulfonyl)piperidin-4-yl)amino)-5-(trifluoromethyl)pyrimidin-4-yl)-1H-imidazol-2-yl)propan-2-ol] |
| ≤ 50 | Cc1nc(-c2nc(NC3CCN(S(C)(=O)=O)CC3)ncc2C(F)(F)F)cn1-c1ccc(OC[C@@H]2CCCN2C)cc1F [Example 425, (S)-4-(1-(2-Fluoro-4-((1-methylpyrrolidin-2-yl)methoxy)phenyl)-2-methyl-1H-imidazol-4-yl)-N-(1-(methylsulfonyl)piperidin-4-yl)-5-(trifluoromethyl)pyrimidin-2-amine] |
| ≤ 50 | CC(C)N1CC(c2ccc(-n3cnc(-c4nc(NC5CCN(S(C)(=O)=O)CC5)ncc4C(F)(F)F)c3)c(C#N)c2)C1 [Example 427, 5-(1-Isopropylazetidin-3-yl)-2-(4-(2-((1-(methylsulfonyl)piperidin-4-yl)amino)-5-(trifluoromethyl)pyrimidin-4-yl)-1H-imidazol-1-yl)benzonitrile] |
| ≤ 50 | CC1(NCc2cccc(-n3cnc(-c4nc(NC5CCN(S(C)(=O)=O)CC5)ncc4C(F)(F)F)c3)c2Cl)CCOCC1 [Example 79, 4-(1-(2-Chloro-3-(((4-methyltetrahydro-2H-pyran-4-yl)amino)methyl)phenyl)-1H-imidazol-4-yl)-N-(1-(methylsulfonyl)piperidin-4-yl)-5-(trifluoromethyl)pyrimidin-2-amine] |
